Molecules are shown by their SMILES. ≈ marks a conversion by molar mass, not a printed value.

In one experiment the test system is Nucleic Acid. Briefly: Compound was tested for the inhibition of Rev-RBE RNA complex formation. The class given is functional.
The subject of the next experiment is Human rhinovirus sp. Briefly: Compound was tested for minimum inhibitory concentration against human rhinovirus 14 (HRV14). The class given is functional.

In turn, `NC[C@@H]1O[C@@H](O[C@H]2[C@H](O)[C@@H](O[C@H]3O[C@H](CO)[C@@H](O)[C@H](N)[C@H]3O)[C@H](N)C[C@@H]2N)[C@@H](O)[C@H](O)[C@H]1O` had an MIC against Nucleic Acid greater than 100 µM.
Same read-out and setting: next, `NC[C@H]1O[C@H](O[C@H]2[C@H](O)[C@@H](O[C@H]3O[C@H](CO)[C@@H](O)[C@H](N)[C@H]3O)[C@H](N)C[C@@H]2N)[C@H](N)[C@@H](O)[C@@H]1O`: 100 µM (≈ 48.4 µg/mL).
The molecule `Cc1cc(CCCCCCCOc2ccc(C3=NCCO3)cc2)on1` [DISOXARIL] displayed an MIC against Human rhinovirus sp. of 0.6 µM (≈ 0.205 µg/mL).
`CC[C@@H]1CN=C(c2ccc(OCCCCCCCc3cc(C)no3)cc2)O1` displayed an MIC against Human rhinovirus sp. of 0.02 µM (≈ 0.00741 µg/mL).
Still for that read-out and setting: the value for `Cc1cc(CCCCCCCOc2ccc(C3=NC[C@@H](C)O3)cc2Cl)on1` was 0.2 µM (≈ 0.0782 µg/mL); that for `Cc1cc(CCCCCCCOc2ccc(C3=NC[C@H](C)O3)cc2)on1` was 0.4 µM (≈ 0.143 µg/mL).
Still for that read-out and setting: the value for `Cc1cc(CCCCCOc2ccc(C3=NCCO3)cc2)on1` was 0.5 µM (≈ 0.157 µg/mL).
As to `NC[C@H]1O[C@H](O[C@H]2[C@H](O[C@@H]3O[C@H](CO)[C@@H](O)[C@H]3O)[C@@H](O)[C@H](N)C[C@@H]2N)[C@H](N)[C@@H](O)[C@@H]1O`, in the experiment with Nucleic Acid, the MIC turned out to be 100 µM (≈ 45.4 µg/mL).
The molecule `CNC1C(O)C(OC2C(N)CC(N)C(OC3OC(CN)CCC3N)C2O)OCC1(C)O` (stereo not drawn) showed an MIC in the experiment with Nucleic Acid of 100 µM (≈ 45 µg/mL).
Same read-out and setting: next, `NC[C@@H]1O[C@H](O[C@H]2[C@@H](O)[C@H](O[C@@H]3[C@@H](O)[C@H](N)C[C@H](N)[C@H]3O[C@H]3O[C@H](CO)[C@@H](O)[C@H](O)[C@H]3N)O[C@@H]2CO)[C@H](N)[C@@H](O)[C@@H]1O`: greater than 100 µM.
On the same count and under the same terms, next, `NC[C@H]1O[C@H](O[C@H]2[C@H](O)[C@@H](O)[C@H](N)C[C@@H]2N)[C@H](N)[C@@H](O)[C@@H]1O`: greater than 100 µM.
The same measure, in the same setting: next, `CN[C@@H]1[C@@H](O)[C@@H](O[C@@H]2[C@@H](O)[C@H](O[C@H]3OC(CN)=CC[C@H]3N)[C@@H](N)C[C@H]2N)OC[C@]1(C)O`: greater than 100 µM; `NC[C@@H]1O[C@H](O[C@H]2[C@@H](O)[C@H](O[C@@H]3[C@@H](O)[C@H](N)C[C@H](N)[C@H]3O[C@H]3O[C@H](CO)[C@@H](O)C[C@H]3N)O[C@@H]2CO)[C@H](N)[C@@H](O)[C@@H]1O[C@H]1O[C@H](CO)[C@@H](O)[C@H](O)[C@@H]1O`: 10 µM (≈ 7.62 µg/mL).
In turn, `Cc1cc(CCCCCOc2ccc(C3=NC[C@@H](C)O3)cc2)on1` returned an MIC in the experiment on Human rhinovirus sp. of 0.6 µM (≈ 0.197 µg/mL).
Still for that read-out and setting: next, `Cc1cc(CCCCCOc2ccc(C3=NCCO3)cc2Cl)on1`: 2.4 µM (≈ 0.837 µg/mL).
The molecule `NC[C@@H]1O[C@H](O[C@H]2[C@@H](O)[C@H](O[C@@H]3[C@@H](O)[C@H](N)C[C@H](N)[C@H]3O[C@H]3O[C@H](CN)[C@@H](O)[C@H](O)[C@H]3N)O[C@@H]2CO)[C@H](N)[C@@H](O)[C@@H]1O` yielded an MIC with Nucleic Acid of 1 µM (≈ 0.615 µg/mL).
Same read-out and setting: the value for `NC[C@H]1O[C@H](O[C@H]2[C@H](O)[C@@H](O[C@H]3O[C@H](CO)[C@@H](O)[C@H](N)[C@H]3O)[C@H](N)C[C@@H]2N)[C@H](N)C[C@@H]1O` was 10 µM (≈ 4.68 µg/mL).
Molecule `Cc1cc(CCCCCCCOc2ccc(C3=NC[C@@H](C)O3)cc2)on1` had an MIC in the experiment with Human rhinovirus sp. of 0.03 µM (≈ 0.0107 µg/mL).
